Data on 25 molecules can be found in ChEMBL document CHEMBL4706528, “The design, synthesis and anti-tumor mechanism study of new androgen receptor degrader” (Eur J Med Chem, 2020).

Structures are written as SMILES.

As a reminder, the IC50 is the concentration at which inhibition is half-maximal.

Test [1] deals with LNCaP. As to the kind of experiment: Antiproliferative activity against androgen-positive human LNCaP cells assessed as cell growth inhibition measured after 72 hrs by SRB assay. Format: functional, cell-based. In general terms: In SRB staining, fixed cells bind dye roughly in proportion to their protein.
Test [2] concerns the target T1, Androgen receptor (Homo sapiens) (UniProt P10275).
T1 sequence (whole entry): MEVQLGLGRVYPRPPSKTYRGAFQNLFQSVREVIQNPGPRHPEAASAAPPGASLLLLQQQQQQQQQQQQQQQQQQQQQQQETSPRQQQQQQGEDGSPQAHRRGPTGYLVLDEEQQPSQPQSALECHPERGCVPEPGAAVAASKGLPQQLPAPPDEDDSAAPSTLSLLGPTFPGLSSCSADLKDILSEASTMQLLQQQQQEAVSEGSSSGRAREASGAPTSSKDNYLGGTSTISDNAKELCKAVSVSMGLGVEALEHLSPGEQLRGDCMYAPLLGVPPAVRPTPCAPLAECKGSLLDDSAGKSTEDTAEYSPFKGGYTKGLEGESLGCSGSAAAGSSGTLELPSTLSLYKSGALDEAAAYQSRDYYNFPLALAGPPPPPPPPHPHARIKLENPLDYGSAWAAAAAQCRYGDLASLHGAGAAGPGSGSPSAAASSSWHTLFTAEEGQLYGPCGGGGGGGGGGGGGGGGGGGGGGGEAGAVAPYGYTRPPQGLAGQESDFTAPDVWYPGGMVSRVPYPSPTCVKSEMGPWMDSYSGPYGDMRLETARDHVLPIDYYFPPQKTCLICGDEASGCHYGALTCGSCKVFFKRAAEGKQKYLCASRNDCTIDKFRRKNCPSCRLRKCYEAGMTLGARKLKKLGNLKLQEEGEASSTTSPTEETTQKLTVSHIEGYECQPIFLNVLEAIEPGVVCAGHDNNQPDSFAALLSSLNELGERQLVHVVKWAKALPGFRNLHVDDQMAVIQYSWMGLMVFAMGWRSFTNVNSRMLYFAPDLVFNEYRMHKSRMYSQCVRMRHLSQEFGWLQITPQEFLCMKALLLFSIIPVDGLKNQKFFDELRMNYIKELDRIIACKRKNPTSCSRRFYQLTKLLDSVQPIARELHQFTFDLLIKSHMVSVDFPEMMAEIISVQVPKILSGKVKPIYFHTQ
As to the kind of experiment: Binding affinity to androgen receptor LBD (unknown origin) at 10 uM incubated for 4 hrs under dark by fluorescence polarization based binding assay relative to R1881.

Test [3] deals with LNCaP C4-2B. As to the kind of experiment: Antiproliferative activity against androgen-sensitive positive human LNCaP C4-2B cells assessed as cell growth inhibition measured after 72 hrs by SRB assay. The format is functional, cell-based.
The test system of test [4] is PC-3. In words: Antiproliferative activity against androgen-negative human PC-3 cells assessed as cell growth inhibition measured after 72 hrs by SRB assay. Format: functional, cell-based. Conditions: PC-3, 72 h.
Test [5] is described as follows: Cytotoxicity against androgen-negative human WPMY-1 cells assessed as cell growth inhibition measured after 72 hrs by SRB assay. Format: cell-based. Particulars: WPMY-1, 72 h.

Take `CC1(C)C(=O)N(c2ccc(C#N)c(C(F)(F)F)c2)C(=S)N1CCCn1cc(COCCCOC(=O)CC23CC4CC(CC(C4)C2)C3)nn1`: the IC50 in test [1] was 6.64 µM; in test [3] it was 10.6 µM; in test [4] it was above 80 µM; in test [5], above 80 µM. In addition, in test [2], the Activity worked out at 31.6%.

`CC1(C)C(=O)N(c2ccc(C#N)c(C(F)(F)F)c2)C(=O)N1Cc1ccc(-n2cc(COCCOCCOCCOC(=O)CC34CC5CC(CC(C5)C3)C4)nn2)cc1`: the IC50 in test [1], in test [3], in test [4] and in test [5] was above 80 µM in each case. For the same molecule, in test [2], the Activity was determined as 20.1%.

Turning to `CC1(C)C(=O)N(c2ccc(C#N)c(C(F)(F)F)c2)C(=O)N1Cc1cn(CCOCCOC(=O)CC23CC4CC(CC(C4)C2)C3)nn1`, the IC50 in test [1] was above 80 µM; in test [3], 11.9 µM; in test [4], above 80 µM; in test [5] it was above 80 µM. In test [2], the Activity was 52.8%.

For the molecule `CC1(C)C(=O)N(c2ccc(C#N)c(C(F)(F)F)c2)C(=O)N1CCCn1cc(COCCCOC(=O)CC23CC4CC(CC(C4)C2)C3)nn1`, the IC50 is 4.06 µM in test [1], 11.2 µM in test [3], above 80 µM in test [4] and above 80 µM in test [5]. The Activity in test [2] turned out to be 24.3%.

`CC1(C)C(=O)N(c2ccc(C#N)c(C(F)(F)F)c2)C(=O)N1CCCn1cc(COCCOCCOCCOCCOC(=O)CC23CC4CC(CC(C4)C2)C3)nn1`: the IC50 in test [1] was 9.96 µM; in test [3] it was 11.7 µM; in test [4], above 80 µM; in test [5] it was above 80 µM. Also, in test [2], the Activity stood at 47%.

Turning to `CC1(C)C(=O)N(c2ccc(C#N)c(C(F)(F)F)c2)C(=O)N1CCCn1cc(COCCOCCOCCOC(=O)CC23CC4CC(CC(C4)C2)C3)nn1`, the IC50 is 6.66 µM in test [1], 9.95 µM in test [3], above 80 µM in test [4] and above 80 µM in test [5]. For the same molecule, the Activity in test [2] was 33.9%.

Take `CC1(C)C(=O)N(c2ccc(C#N)c(C(F)(F)F)c2)C(=S)N1CCCn1cc(COCCOCCOCCOCCOCCOC(=O)CC23CC4CC(CC(C4)C2)C3)nn1`: the concentration for half-maximal inhibition (IC50) in test [1] is 6.92 µM; in test [3] it was 6.61 µM; in test [4] it was above 80 µM; in test [5], above 80 µM. Moreover, the Activity in test [2] stood at 33.7%.

For `CC1(C)C(=O)N(c2ccc(C#N)c(C(F)(F)F)c2)C(=O)N1Cc1ccc(-n2cc(COCCOCCOC(=O)CC34CC5CC(CC(C5)C3)C4)nn2)cc1`, the half-inhibitory concentration (IC50) in test [1], in test [3], in test [4] and in test [5] was above 80 µM throughout. The molecule further gave an Activity in test [2] of 36.7%.

With `CC1(C)C(=O)N(c2ccc(C#N)c(C(F)(F)F)c2)C(=S)N1Cc1ccc(OCCOCCOC(=O)CC23CC4CC(CC(C4)C2)C3)cc1`, the IC50 in test [1], in test [3], in test [4] and in test [5] was above 80 µM throughout. In test [2], the Activity is 34.2%.

For the molecule `CC1(C)C(=O)N(c2ccc(C#N)c(C(F)(F)F)c2)C(=S)N1Cc1ccc(-n2cc(COCCOCCOCCOC(=O)CC34CC5CC(CC(C5)C3)C4)nn2)cc1`, the IC50 in test [1], in test [3], in test [4] and in test [5] was above 80 µM throughout. In test [2], the Activity is 25.3%.

Consider `CC1(C)C(=O)N(c2ccc(C#N)c(C(F)(F)F)c2)C(=S)N1Cc1ccc(OCCOCCOCCOC(=O)CC23CC4CC(CC(C4)C2)C3)cc1`, for which the IC50 in test [1] was above 80 µM; in test [3], 14.6 µM; in test [4], above 80 µM; in test [5], above 80 µM. In test [2], this molecule returned an Activity of 32%.

`CC1(C)C(=O)N(c2ccc(C#N)c(C(F)(F)F)c2)C(=S)N1Cc1ccc(OCCCOC(=O)CC23CC4CC(CC(C4)C2)C3)cc1`: the IC50 in test [1], in test [3], in test [4] and in test [5] was above 80 µM in each case. Further, the Activity in test [2] is 37.9%.

For the molecule `CC1(C)C(=O)N(c2ccc(C#N)c(C(F)(F)F)c2)C(=O)N1Cc1cn(CCOCCOCCOCCOC(=O)CC23CC4CC(CC(C4)C2)C3)nn1`, the IC50 is 6.87 µM in test [1], 7.76 µM in test [3], above 80 µM in test [4] and above 80 µM in test [5]. The same molecule gave an Activity in test [2] of 29.8%.

With `CC1(C)C(=O)N(c2ccc(C#N)c(C(F)(F)F)c2)C(=O)N1Cc1cn(CCOCCOCCOC(=O)CC23CC4CC(CC(C4)C2)C3)nn1`, the IC50 in test [1] is 7.7 µM; in test [3], 8.34 µM; in test [4], above 80 µM; in test [5], above 80 µM. In test [2], this molecule had an Activity of 46.7%.

For the molecule `CC1(C)C(=O)N(c2ccc(C#N)c(C(F)(F)F)c2)C(=S)N1Cc1cn(CCOCCOC(=O)CC23CC4CC(CC(C4)C2)C3)nn1`, the IC50 in test [1] is above 80 µM; in test [3] it was 17.4 µM; in test [4], above 80 µM; in test [5], above 80 µM. This molecule also gave an Activity in test [2] of 22.2%.

With `CC1(C)C(=O)N(c2ccc(C#N)c(C(F)(F)F)c2)C(=S)N1Cc1ccc(OCCOCCOCCOCCOC(=O)CC23CC4CC(CC(C4)C2)C3)cc1`, the half-maximal inhibitory concentration (IC50) in test [1], in test [3], in test [4] and in test [5] was above 80 µM in each case. This molecule had an Activity in test [2] of 35.8%.

For `CC1(C)C(=O)N(c2ccc(C#N)c(C(F)(F)F)c2)C(=O)N1CCCn1cc(COCCOCCOC(=O)CC23CC4CC(CC(C4)C2)C3)nn1`, the IC50 in test [1] was 7.28 µM; in test [3], 12.3 µM; in test [4] it was above 80 µM; in test [5], above 80 µM. In test [2], this molecule registered an Activity of 41.9%.

On to `CC1(C)C(=O)N(c2ccc(C#N)c(C(F)(F)F)c2)C(=S)N1Cc1cn(CCCOC(=O)CC23CC4CC(CC(C4)C2)C3)nn1`, for which the IC50 in test [1], in test [3], in test [4] and in test [5] was above 80 µM each time. In test [2], this molecule displayed an Activity of 52.8%.

On to `CC1(C)C(=O)N(c2ccc(C#N)c(C(F)(F)F)c2)C(=S)N1Cc1ccc(-n2cc(COCCOCCOCCOCCOC(=O)CC34CC5CC(CC(C5)C3)C4)nn2)cc1`, for which the IC50 in test [1], in test [3], in test [4] and in test [5] was above 80 µM throughout. Further, the Activity in test [2] worked out at 39.9%.

Turning to `CC1(C)C(=O)N(c2ccc(C#N)c(C(F)(F)F)c2)C(=S)N1CCCn1cc(COCCOCCOCCOCCOC(=O)CC23CC4CC(CC(C4)C2)C3)nn1`, the IC50 was 4.25 µM in test [1], 7.64 µM in test [3], above 80 µM in test [4] and above 80 µM in test [5]. The molecule further displayed an Activity in test [2] of 69.3%.

Take `CC1(C)C(=O)N(c2ccc(C#N)c(C(F)(F)F)c2)C(=S)N1Cc1ccc(-n2cc(COCCOCCOC(=O)CC34CC5CC(CC(C5)C3)C4)nn2)cc1`: the IC50 in test [1], in test [3], in test [4] and in test [5] was above 80 µM throughout. For the same molecule, the Activity in test [2] worked out at 35.8%.

Take `CC1(C)C(=O)N(c2ccc(C#N)c(C(F)(F)F)c2)C(=S)N1Cc1cn(CCOCCOCCOCCOC(=O)CC23CC4CC(CC(C4)C2)C3)nn1`: the IC50 in test [1] was 6.31 µM; in test [3] it was 11.2 µM; in test [4], above 80 µM; in test [5], above 80 µM. The molecule also had an Activity in test [2] of 69.1%.

Regarding `CC1(C)C(=O)N(c2ccc(C#N)c(C(F)(F)F)c2)C(=O)N1Cc1ccc(-n2cc(COCCCOC(=O)CC34CC5CC(CC(C5)C3)C4)nn2)cc1`, the IC50 in test [1], in test [3], in test [4] and in test [5] was above 80 µM throughout. This molecule displayed an Activity in test [2] of 19.1%.

For the molecule `CC1(C)C(=O)N(c2ccc(C#N)c(C(F)(F)F)c2)C(=O)N1Cc1cn(CCCOC(=O)CC23CC4CC(CC(C4)C2)C3)nn1`, the 50% inhibitory concentration (IC50) in test [1], in test [3], in test [4] and in test [5] was above 80 µM each time. In test [2], this molecule showed an Activity of 43.4%.

`CC1(C)C(=O)N(c2ccc(C#N)c(C(F)(F)F)c2)C(=S)N1CCCCCCn1cc(COCCOCCOC(=O)CC23CC4CC(CC(C4)C2)C3)nn1`: the IC50 in test [1] was 33.9 µM; in test [3] it was above 80 µM; in test [4], above 80 µM; in test [5] it was above 80 µM. The Activity in test [2] was 32.3%.
